From ChEMBL document CHEMBL5532639, “Heterocyclic pyrimidine derivatives as promising antibacterial agents” (Eur J Med Chem, 2023)
Values after ≈ are worked out from the molar mass of the structure shown.

Key:
[1] = system: Bacillus subtilis; experiment: Antibacterial activity against Bacillus subtilis; type: functional
[2] = system: Streptococcus pneumoniae; experiment: Antimicrobial activity against Streptococcus […] assessed as bacterial growth inhibition by measuring zone of inhibition at 50 ug/ml by agar cup diffusion assay; type: functional; details: read-out: IZ
[3] = system: Staphylococcus aureus; experiment: Antibacterial activity against Staphylococcus aureus ATCC 3750 assessed as reduction in bacterial growth; type: functional
[4] = system: Staphylococcus aureus; experiment: Antibacterial activity against Staphylococcus aureus; type: functional
[5] = system: Streptococcus pyogenes; experiment: Antibacterial activity against Streptococcus pyogenes assessed as reduction in microbial growth by CLSI based broth microdilution method; type: functional
[6] = system: Bacillus subtilis; experiment: Antimicrobial activity against Bacillus subtilis RCMB 010069 assessed as bacterial growth inhibition by measuring zone of inhibition at 50 ug/ml by agar cup diffusion assay; type: functional; details: read-out: IZ
[7] = system: Staphylococcus aureus; experiment: Antibacterial activity against Staphylococcus aureus assessed as reduction in microbial growth by CLSI based broth microdilution method; type: functional
[8] = system: Streptococcus pneumoniae; experiment: Antibacterial activity against Streptococcus pneumoniae; type: functional
[9] = system: Escherichia coli; experiment: Antibacterial activity against Escherichia coli ATCC 25922 assessed as bacterial growth inhibition; type: functional
[10] = system: Pseudomonas aeruginosa; experiment: Antibacterial activity against Pseudomonas aeruginosa assessed as reduction in bacterial growth by broth microdilution method; type: functional
[11] = system: Escherichia coli; experiment: Antibacterial activity against Escherichia coli assessed as bacterial growth inhibition incubated for 18 hrs by CLSI protocol based Mueller-Hinton broth assay; type: functional
[12] = system: Salmonella typhimurium; experiment: Antibacterial activity against Salmonella typhimurium DT104 assessed as reduction in bacterial growth; type: functional, Salmonella enterica subsp. enterica serovar Typhimurium; details: Salmonella enterica
[13] = system: Bacillus subtilis; experiment: Antibacterial activity against Bacillus subtilis 6633 assessed as reduction in bacterial growth; type: functional
[14] = system: Escherichia coli; experiment: Antibacterial activity Escherichia coli assessed as reduction in bacterial growth; type: functional
[15] = system: Pseudomonas aeruginosa; experiment: Antibacterial activity against Pseudomonas aeruginosa assessed as reduction in microbial growth after 18 hrs by MTT based broth dilution method; type: functional
[16] = system: Bacillus subtilis; experiment: Antibacterial activity against Bacillus subtilis assessed as reduction in bacterial cell viability by well plate method; type: functional
[17] = system: Staphylococcus epidermidis; experiment: Antibacterial activity against Staphylococcus epidermidis assessed as reduction in microbial growth; type: functional
[18] = system: Pseudomonas aeruginosa; experiment: Antibacterial activity against Pseudomonas aeruginosa assessed as reduction in microbial growth by broth microdilution method; type: functional
[19] = system: Escherichia coli; experiment: Antibacterial activity against Escherichia coli assessed as reduction in bacterial growth by broth microdilution method; type: functional
[20] = system: Klebsiella pneumoniae; experiment: Antibacterial activity against Klebsiella pneumoniae assessed as reduction in bacterial growth by broth microdilution method; type: functional
[21] = system: Staphylococcus aureus; experiment: Antibacterial activity against Staphylococcus aureus assessed as bacterial growth inhibition; type: functional
[22] = system: Bacillus subtilis; experiment: Antibacterial activity against Bacillus subtilis ATCC 465 assessed as reduction in bacterial growth measured after 24 hrs by Mueller-Hinton broth assay; type: functional
[23] = system: Pseudomonas aeruginosa; experiment: Antibacterial activity against Pseudomonas aeruginosa; type: functional
[24] = system: Bacillus subtilis; experiment: Antibacterial activity against Bacillus subtilis assessed as reduction in microbial growth by measuring zone of inhibition; type: functional
[25] = system: Pseudomonas aeruginosa; experiment: Antibacterial activity against Pseudomonas aeruginosa ATCC 85327 assessed as reduction in bacterial growth measured after 24 hrs by Mueller-Hinton broth assay; type: functional
[26] = system: Klebsiella sp.; experiment: Antibacterial activity against Klebsiella sp. assessed as inhibition of bacterial growth; type: functional
[27] = system: Pseudomonas aeruginosa; experiment: Antibacterial activity against Pseudomonas aeruginosa assessed as reduction in bacterial growth; type: functional
[28] = system: Escherichia coli; experiment: Antibacterial activity against Escherichia coli assessed as reduction in bacterial growth; type: functional
[29] = system: Staphylococcus aureus; experiment: Antibacterial activity against Staphylococcus aureus assessed as reduction in microbial growth; type: functional
[30] = system: Escherichia coli; experiment: Antibacterial activity against Escherichia coli; type: functional
[31] = system: Salmonella typhimurium; experiment: Antimicrobial activity against Salmonella typhimurium DT104 assessed as diameter of inhibition zone incubated for 24 hrs by well diffusion assay; type: functional, Salmonella enterica subsp. enterica serovar Typhimurium
[32] = system: Pseudomonas aeruginosa; experiment: Antimicrobial activity against Pseudomonas aeruginosa assessed as diameter of inhibition zone incubated for 24 hrs by well diffusion assay; type: functional
[33] = system: Bacillus subtilis; experiment: Antimicrobial activity against Bacillus subtilis assessed as diameter of inhibition zone incubated for 24 hrs by well diffusion assay; type: functional
[34] = system: Micrococcus luteus; experiment: Antimicrobial activity against Micrococcus luteus assessed as diameter of inhibition zone incubated for 24 hrs by well diffusion assay; type: functional
[35] = system: Staphylococcus aureus; experiment: Antibacterial activity against Staphylococcus aureus assessed as bacterial growth inhibition by measuring zone of inhibition at 50 ug/ml by agar cup diffusion assay; type: functional; details: read-out: IZ
[36] = system: Escherichia coli; experiment: Antibacterial activity against Escherichia coli assessed as bacterial growth inhibition by measuring zone of inhibition at 50 ug/ml by agar cup diffusion assay; type: functional; details: read-out: IZ
[37] = system: Salmonella typhimurium; experiment: Antibacterial activity against Salmonella typhimurium DT104 assessed as bacterial growth inhibition by measuring zone of inhibition at 50 ug/ml by agar cup diffusion assay; type: functional, Salmonella enterica subsp. enterica serovar Typhimurium; details: Salmonella enterica, read-out: IZ
[38] = system: Bacillus subtilis; experiment: Antibacterial activity against Bacillus subtilis assessed as bacterial growth inhibition by measuring zone of inhibition at 50 ug/ml by agar cup diffusion assay; type: functional; details: read-out: IZ
[39] = system: Pneumocystis carinii; experiment: Antifungal activity against Pneumocystis carinii assessed as reduction in fungal growth; type: functional, organism-based
[40] = system: Toxoplasma gondii; experiment: Antiparasitic activity against Toxoplasma gondii assessed as parasitic growth inhibition; type: functional, organism-based

Molecule: CC1(C)S[C@@H]2[C@H](NC(=O)[C@H](N)c3ccccc3)C(=O)N2[C@H]1C(=O)O [AMPICILLIN]
- MIC [1]: 0.49 mg/L (≈ 1.4 µM)
- zone of inhibition at 50 µg/mL [2]: 23.8 mm
- MIC [3]: 50 mg/L (≈ 143 µM)
- MIC [4]: 0.49 mg/L (≈ 1.4 µM)
- MIC [5]: 100 mg/L
- zone of inhibition at 50 µg/mL [6]: 32.4 mm
- MIC [7]: 250 mg/L
- MIC [8]: 0.98 mg/L (≈ 2.8 µM)
- MIC [9]: 4 mg/L (≈ 11.4 µM)
- MIC [10]: 100 mg/L (≈ 286 µM)
- MIC [11]: 100 mg/L (≈ 286 µM)
- MIC [12]: 49 mg/L (≈ 140 µM)
- MIC [13]: 4 mg/L (≈ 11.4 µM)

Molecule: O=C1CCCC2=C1C(c1ccc(Cl)cc1)c1c(nc(-c3cc4ccccc4oc3=O)[nH]c1=O)O2 (stereo not given)
- MIC [14]: 100 mg/L (≈ 211 µM)
- MIC [15]: 100 mg/L
- MIC [16]: 25 mg/L (≈ 52.9 µM)
- MIC [17]: 50 mg/L
- MIC [18]: 100 mg/L
- MIC [19]: 50 mg/L (≈ 106 µM)
- MIC [20]: 100 mg/L (≈ 211 µM)
- MIC [21]: 100 mg/L (≈ 211 µM)

Molecule: GENTAMICIN
- MIC [22]: 0.125 mg/L
- MIC [23]: 0.98 mg/L
- inhibition zone (IZ) [24]: 24 mm
- MIC [25]: 1 mg/L

Molecule: COc1ccc(C2C3=C(CCCC3=O)Oc3nc(-c4cc5ccccc5oc4=O)[nH]c(=O)c32)cc1OC (stereo not given)
- MIC [14]: 50 mg/L (≈ 100 µM)
- MIC [15]: 50 mg/L
- MIC [16]: 50 mg/L (≈ 100 µM)
- MIC [17]: 100 mg/L
- MIC [18]: 50 mg/L
- MIC [19]: 12.5 mg/L (≈ 25.1 µM)
- MIC [20]: 50 mg/L (≈ 100 µM)
- MIC [21]: 50 mg/L (≈ 100 µM)

Molecule: COc1ccc2cc(-c3nc4sc5c(c4c(=O)n3N)CCCC5)ccc2c1
- MIC [26]: 12.5 mg/L (≈ 33.1 µM)
- MIC [27]: 12.5 mg/L (≈ 33.1 µM)
- MIC [28]: 12.5 mg/L (≈ 33.1 µM)
- MIC [29]: 12.5 mg/L

Molecule: O=c1[nH]c(=S)[nH]c2nc(-c3ccc(Cl)cc3)cc(-c3ccccc3)c12
- MIC [1]: 1.95 mg/L (≈ 5.33 µM)
- MIC [4]: 3.9 mg/L (≈ 10.7 µM)
- MIC [30]: 0.98 mg/L (≈ 2.68 µM)
- MIC [23]: 3.9 mg/L (≈ 10.7 µM)
- MIC [8]: 0.98 mg/L (≈ 2.68 µM)

Molecule: NC(=O)N/N=C/c1ccc([N+](=O)[O-])o1 [NITROFURAZONE]
- MIC [26]: 12.5 mg/L (≈ 63.1 µM)
- MIC [27]: 6 mg/L (≈ 30.3 µM)
- MIC [28]: 12.5 mg/L (≈ 63.1 µM)
- MIC [29]: 12.5 mg/L

Molecule: CC[C@H]1OC(=O)[C@H](C)[C@@H](O[C@H]2C[C@@](C)(OC)[C@@H](O)[C@H](C)O2)[C@H](C)[C@@H](O[C@@H]2O[C@H](C)C[C@H](N(C)C)[C@H]2O)[C@](C)(O)C[C@@H](C)C(=O)[C@H](C)[C@@H](O)[C@]1(C)O [ERYTHROMYCIN]
- inhibition zone (IZ) [31]: 7 mm
- inhibition zone (IZ) [32]: 10 mm
- inhibition zone (IZ) [33]: 12 mm
- inhibition zone (IZ) [34]: 10 mm

Molecule: CN(C)[C@@H]1C(O)=C(C(N)=O)C(=O)[C@@]2(O)C(O)=C3C(=O)c4c(O)cccc4[C@@](C)(O)[C@H]3C[C@@H]12 [TETRACYCLINE]
- zone of inhibition at 50 µg/mL [35]: 19 mm
- inhibition zone (IZ) [31]: 8 mm
- inhibition zone (IZ) [32]: 18 mm
- inhibition zone (IZ) [33]: 14 mm
- zone of inhibition at 50 µg/mL [36]: 15 mm
- zone of inhibition at 50 µg/mL [37]: 24 mm
- inhibition zone (IZ) [34]: 16 mm
- zone of inhibition at 50 µg/mL [38]: 21 mm

Molecule: COc1ccc(-c2cc(C#Cc3ccc(C(=O)O)cc3)cc(Cc3cnc(N)nc3N)c2)cc1OC
- IC50 [39]: 1.2 µM
- IC50 [40]: 0.42 µM
